The source of these data is paper PMC6100475, “Development and Validation of a HPLC-MS/MS Method for Simultaneous Determination of Twelve Bioactive Compounds in Epimedium: Application to a Pharmacokinetic Study in Rats” (Molecules : A Journal of Synthetic Chemistry and Natural …, 2018).

Data set [1] can be described thus: Pharmacokinetic study in rats after oral administration of Epimedium extract (HPLC-MS/MS of plasma). The class given is in vivo, Male Sprague-Dawley rats. To be noted: rat plasma, single oral dose of Epimedium extract 10 g/kg; for AUC(0-inf) / half-life / AUC / MRT / MRT inf: male, Sprague-Dawley; for AUC(0-inf) / half-life / AUC / MRT / MRT inf / Cmax1 / Tmax1: n = 6; for AUC: read-out: AUC(0-tn); for MRT: read-out: MRT(0-tn); for MRT inf: read-out: MRT(0-∞); for Cmax2 / Tmax2: n = 6, second peak. The method, then: An Agilent 1200 Series HPLC system, which consisted of a binary pump (G1312A), an auto-sampler (G1367B), an online degasser unit (G1322A), along with temperature-controlled column compartment (G1316A), was used for the analysis. The twelve compounds and IS were separated on a CORTECS®C18 column (4.6 mm × 150 mm, 2.7 μm) maintained at 30 °C with the mobile phase consisted of acetonitrile (A) and 0.1% (v/v) formic acid (B). The flow rate was 0.3 mL/min. The gradient elution was as follows: 0–4 min, 20–50% A; 4–5 min, 50–60% A; 5–15 min, 60–70% A. The injection volume was 5 μL.
The tandem mass spectrometry was performed on a triple-quadrupole mass spectrometer equipped with an electrospray ionization (ESI) source (Agilent G6430A system). Nitrogen gas served as the nebulizer, drying, and collision gas. Analytes were monitored by SRM in negative mode with the electrospray ionization parameters optimized as follows: ion spray voltage of −4000 V, capillary temperature of 350 °C, auxiliary nitrogen pressure of 20 psi, drying gas flow of 9 L/min. The mass spectrometric parameters of precursor ion, product ion, collision energy (CE) and fragmentor (Frag) for analytes are listed in Table 6. Both the collision energy and the fragmentor were optimized for each compound by infusion of the standard solutions of methanol to mass spectrometry directly. The peak in sample was recognized as the target compound if the retention time, precursor ion, and product ion are same as the stand. For each analyte, the most abundant product ion was chosen for quantification. All analytes were quantified using the 6-point calibration curve. The peak areas were used for quantification following an internal algorithm. For each batch of samples processed and analyzed, the determined concentration of each compound in the QC samples, as quantified by the standard curves, was required to fall within ±15% of the known concentration for the data to be included in the final analysis.
Male Sprague-Dawley rats (220 ± 10) g were obtained from the Beijing HUAFUKANG Bioscience Co., Inc. (Beijing, China). Six male rats were acclimatized to the facilities for a week and fasted for 12 h, but allowed free access to water, before dosing. The Epimedium extract was suspended in 0.5% carboxymethyl cellulose sodium (CMC-Na) aqueous solution and given to each rat by oral administration at a single dose of 10 g/kg. Blood samples (250 μL) were collected from the fossa orbitalis of rats at 0 (before dosing), 0.03, 0.08, 0.17, 0.25, 0.5, 1, 2, 4, 6, 8, 10, 12 and 24 h after dosing. Then, the blood samples were centrifuged at 6000 g for 10 min to obtain the plasma, and the plasma was removed to another EP tube and frozen at −70 °C until analysis. The rat plasma concentration–time data of 12 analytes were computed by the software “Drug and Statistics 1.0” (DAS 1.0)

On the set-up of data set [2]: method as in PMID 20705408. To be noted: previous reports ref 19; cited from earlier work.

As usually defined, the AUC(0-inf) is total exposure, with the tail of the curve extrapolated. High values mean high exposure, low ones low exposure. A word on the half-life: it is the time in which the quantity being followed falls by half. Low values mean rapid decline, high ones slow decline. For orientation: AUC means the area under the concentration-time curve, a measure of exposure. The term MRT denotes the average time that molecules of a dose stay in the body.

With `COc1ccc(-c2oc3c(CC=C(C)C)c(O)cc(O)c3c(=O)c2O[C@@H]2O[C@@H](C)[C@H](O)[C@@H](O)[C@H]2O[C@@H]2O[C@H](CO)[C@@H](O)[C@H](O)[C@H]2O)cc1` [sagittatoside A], in data set [1], the AUC(0-inf) was 1780 ± 352 ng·h/mL, the half-life is 13.8 ± 7.09 h, the AUC worked out at 1610 ± 349 ng·h/mL and the MRT came to 12 ± 0.71 h. For the same compound, in data set [1], the MRT inf is 14.3 ± 2 h, the Cmax1 was found to be 20.35 ± 10.26 ng/mL, the Tmax1 is 0.18 ± 0.03 h and the Cmax2 is listed as 203.50 ± 97.03 ng/mL. The Tmax2 in data set [1] was 11.67 ± 0.82 h.

With `O=C(/C=C/c1ccc(O)c(O)c1)O[C@@H]1C[C@](O)(C(=O)O)C[C@@H](O)[C@H]1O` [chlorogenic acid], in data set [1], the AUC(0-inf) was found to be 886 ± 377 ng·h/mL, the half-life was 0.45 ± 0.3 h, the AUC was 880 ± 365 ng·h/mL and the MRT stood at 3.85 ± 1.28 h. For the same compound, in data set [1], the MRT inf was found to be 3.91 ± 1.32 h, the Cmax1 came out at 540.28 ± 225.18 ng/mL and the Tmax1 was 0.19 ± 0.05 h.

Consider `COc1ccc(-c2oc3c(CC=C(C)C)c(OC4OC(CO)C(O)C(O)C4O)cc(O)c3c(=O)c2OC2OC(C)C(O)C(O)C2OC2OCC(O)C(O)C2O)cc1` (stereo not shown) [epimedin B], for which, in data set [1], the AUC(0-inf) amounted to 1070 ± 212 ng·h/mL, the half-life is 3.64 ± 3.68 h, the AUC was determined as 946 ± 250 ng·h/mL and the MRT is 6.98 ± 1.14 h. Besides, in data set [1], the MRT inf is 8.37 ± 2.39 h, the Cmax1 was found to be 316.73 ± 59.06 ng/mL, the Tmax1 amounted to 0.19 ± 0.07 h and the Cmax2 stood at 129.90 ± 77.04 ng/mL. Moreover, the Tmax2 in data set [1] amounted to 7.67 ± 0.75 h. In addition, the “bimodal phenomenon of plasma concentration–time curve” value in data set [2] was “bimodal phenomenon”.

Take `COc1ccc(-c2oc3c(CC=C(C)C)c(OC4OC(CO)C(O)C(O)C4O)cc(O)c3c(=O)c2OC2OC(C)C(O)C(O)C2OC2OC(CO)C(O)C(O)C2O)cc1` (stereo not shown) [epimedin A]: in data set [1], the AUC(0-inf) was determined as 600 ± 219 ng·h/mL, the half-life was 12.5 ± 6.85 h, the AUC is 550 ± 199 ng·h/mL and the MRT stood at 10.8 ± 2.33 h. Moreover, in data set [1], the MRT inf is 14.1 ± 3.98 h, the Cmax1 is on record as 82.79 ± 7.61 ng/mL, the Tmax1 was found to be 0.22 ± 0.04 h and the Cmax2 is given as 59.34 ± 26.24 ng/mL. The Tmax2 in data set [1] was 9.33 ± 0.94 h. The “bimodal phenomenon of plasma concentration–time curve” value in data set [2] is “bimodal phenomenon”.

For the compound `COc1ccc2c(c1O)-c1c(O)c(OC)cc3c1[C@H](C2)[N+](C)(C)CC3` [magnoflorine], in data set [1], the AUC(0-inf) turned out to be 4000 ± 970 ng·h/mL, the half-life is 17.8 ± 8.25 h, the AUC is 3680 ± 875 ng·h/mL and the MRT stood at 9.86 ± 0.75 h. In addition, in data set [1], the MRT inf was 12.5 ± 1.72 h, the Cmax1 was determined as 411.40 ± 110.77 ng/mL, the Tmax1 was found to be 0.18 ± 0.03 h and the Cmax2 is reported as 275.67 ± 89.36 ng/mL. Further, the Tmax2 in data set [1] amounted to 10.67 ± 1.63 h.

Regarding `COc1ccc(-c2oc3c(CC=C(C)C)c(O)cc(O)c3c(=O)c2OC2OC(C)C(O)C(O)C2OC2OCC(O)C(O)C2O)cc1` (stereo not shown) [sagittatoside B], in data set [1], the AUC(0-inf) came to 1040 ± 202 ng·h/mL, the half-life is 9.38 ± 2.11 h, the AUC stood at 854 ± 171 ng·h/mL and the mean residence time MRT worked out at 11.7 ± 1.17 h. Further, in data set [1], the MRT inf came to 14.9 ± 2.09 h, the Cmax1 came out at 19.38 ± 9.79 ng/mL, the Tmax1 is given as 0.20 ± 0.04 h and the Cmax2 is 112.97 ± 44.50 ng/mL. Besides, the Tmax2 in data set [1] stood at 11.00 ± 1.67 h.

Consider `COc1ccc(-c2oc3c(CC=C(C)C)c(OC4OC(CO)C(O)C(O)C4O)cc(O)c3c(=O)c2OC2OC(C)C(O)C(O)C2OC2OC(C)C(O)C(O)C2O)cc1` (stereo not shown) [epimedin C], for which, in data set [1], the AUC(0-inf) was found to be 919 ± 215 ng·h/mL, the half-life was 17.9 ± 8.23 h, the AUC was 850 ± 269 ng·h/mL and the MRT came to 9.33 ± 2.34 h. In addition, in data set [1], the MRT inf is 12.5 ± 2.59 h, the Cmax1 stood at 135.22 ± 31.26 ng/mL, the Tmax1 was 0.22 ± 0.04 h and the Cmax2 is 103.20 ± 33.10 ng/mL. For the same compound, in data set [1], the Tmax2 was found to be 7.67 ± 0.75 h.

Turning to `COc1ccc(-c2oc3c(CC=C(C)C)c(O)cc(O)c3c(=O)c2O[C@@H]2O[C@@H](C)[C@H](O)[C@@H](O)[C@H]2O)cc1` [baohuoside I], in data set [1], the AUC(0-inf) came to 1680 ± 599 ng·h/mL, the half-life is 13.2 ± 4.8 h, the AUC is 1450 ± 616 ng·h/mL and the MRT was 10.8 ± 1.21 h. Moreover, in data set [1], the MRT inf stood at 15.7 ± 4.1 h, the Cmax1 is 65.20 ± 33.56 ng/mL, the Tmax1 stood at 0.38 ± 0.14 h and the Cmax2 is reported as 170.73 ± 66.97 ng/mL. Further, the Tmax2 in data set [1] is given as 10.00 ± 1.79 h. In addition, the “bimodal phenomenon of plasma concentration–time curve” value in data set [2] is “bimodal phenomenon”.

`O=C(/C=C/c1ccc(O)c(O)c1)O[C@@H]1C[C@@](O)(C(=O)O)C[C@@H](O)[C@@H]1O` [neochlorogenic acid]: in data set [1], the AUC(0-inf) was 269 ± 70.9 ng·h/mL, the half-life was 0.64 ± 0.27 h, the AUC worked out at 264 ± 68.2 ng·h/mL and the MRT is 3.18 ± 1.57 h. For the same compound, in data set [1], the MRT inf was 3.25 ± 1.97 h, the Cmax1 turned out to be 205.96 ± 75.12 ng/mL and the Tmax1 came out at 0.19 ± 0.05 h.

As to `O=C(/C=C/c1ccc(O)c(O)c1)O[C@H]1[C@H](O)C[C@](O)(C(=O)O)C[C@H]1O` [cryptochlorogenic acid], in data set [1], the AUC(0-inf) was found to be 404 ± 169 ng·h/mL, the half-life was 0.53 ± 0.24 h, the AUC amounted to 398 ± 171 ng·h/mL and the MRT is 3.75 ± 1.91 h. Besides, in data set [1], the MRT inf was 3.82 ± 2.48 h, the Cmax1 amounted to 269.77 ± 114.07 ng/mL and the Tmax1 is on record as 0.19 ± 0.05 h.

Consider `CC(C)=CCc1c(O)cc(O)c2c(=O)c(OC3OC(C)C(O)C(O)C3O)c(-c3ccc(O)cc3)oc12` (stereo not shown) [baohuoside II], for which, in data set [1], the AUC(0-inf) was determined as 355 ± 144 ng·h/mL, the half-life is 6.93 ± 2.94 h, the AUC worked out at 246 ± 133 ng·h/mL and the MRT is 11.5 ± 1.99 h. Besides, in data set [1], the MRT inf amounted to 16.5 ± 3.06 h, the Cmax1 is listed as 6.87 ± 4.58 ng/mL, the Tmax1 is reported as 0.18 ± 0.03 h and the Cmax2 stood at 29.17 ± 7.70 ng/mL. Besides, in data set [1], the Tmax2 was 10.67 ± 1.03 h.

For `COc1ccc(-c2oc3c(CC=C(C)C)c(O[C@@H]4O[C@H](CO)[C@@H](O)[C@H](O)[C@H]4O)cc(O)c3c(=O)c2O[C@@H]2O[C@@H](C)[C@H](O)[C@@H](O)[C@H]2O)cc1` [icariin], in data set [1], the AUC(0-inf) was 325 ± 209 ng·h/mL, the half-life is 0.41 ± 0.19 h, the AUC was 323 ± 205 ng·h/mL and the MRT came out at 2.71 ± 0.79 h. In data set [1], the MRT inf is 2.75 ± 0.97 h, the Cmax1 was 350.28 ± 195.96 ng/mL and the Tmax1 was 0.16 ± 0.05 h.
